# PubChem BioAssay AID1963429 (Molecular Pharmacology Branch, DTP, NCI, 2024)
# Tested on: 126254-015-R-J1-PDC complex spheroid growth, % test/control
# Test: Anticancer human tumor 126254-015-R-J1-PDC patient-derived soft tissue sarcoma cell line growth inhibition [Asc]
# Details: for IC50: curve of first compound; for viability, T/C: stronger effect = lower value
# Procedure, shortened: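 Stromal components (HUVEC and hMSC) are co-assembled with the cancer cells into multicellular spheroids. Drugs are then added singly or paired, at concentrations falling by half-log increments from a clinically achievable maximum, capped at 10 microM without known Cmax.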
# [1] = second compound 0.1 µM, first compound 0.0316 µM
# [2] = second compound 0.1 µM, first compound 0.1 µM
# [3] = second compound 0.1 µM, first compound 0.316 µM
# [4] = second compound 0.1 µM, first compound 1 µM
# [5] = second compound 0.1 µM, first compound 3.16 µM
# [6] = second compound 0.1 µM, first compound 10 µM
# [7] = second compound 0.316 µM, first compound 0.0316 µM
# [8] = second compound 0.316 µM, first compound 0.1 µM
# [9] = second compound 0.316 µM, first compound 0.316 µM
# [10] = second compound 0.316 µM, first compound 1 µM
# [11] = second compound 0.316 µM, first compound 3.16 µM
# [12] = second compound 0.316 µM, first compound 10 µM
# [13] = second compound 1 µM, first compound 0.0316 µM
# [14] = second compound 1 µM, first compound 0.1 µM
# [15] = second compound 1 µM, first compound 0.316 µM
# [16] = second compound 1 µM, first compound 1 µM
# [17] = second compound 1 µM, first compound 3.16 µM
# [18] = second compound 1 µM, first compound 10 µM
# [19] = second compound 3.16 µM, first compound 0.0316 µM
# [20] = second compound 3.16 µM, first compound 0.1 µM
# [21] = second compound 10 µM, first compound 0.0316 µM
# [22] = second compound 10 µM, first compound 0.1 µM
# 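Further: spheroids exposed to compound for seven days.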
# 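Wherever viability, T/C is given: 100% = DMSO vehicle control wells.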
smiles,measurement,setting,value
O=C(c1cc(Cc2n[nH]c(=O)c3ccccc23)ccc1F)N1CCN(C(=O)C2CC2)CC1 + CNC(C)C(=O)NC1CN(S(=O)(=O)c2cccc(S(=O)(=O)N3CCC4CCC(C(=O)NC(c5ccccc5)c5ccccc5)N4C(=O)C(NC(=O)C(C)NC)C3)c2)CCC2CCC(C(=O)NC(c3ccccc3)c3ccccc3)N2C1=O,IC50,second compound 0.01 µM,9.05 µM
same,IC50,second compound 0.0316 µM,6.18 µM
same,IC50,second compound 0.1 µM,2.77 µM
same,IC50,second compound 0.316 µM,3.61 µM
same,IC50,second compound 1 µM,1.85 µM
same,"viability, T/C","second compound 0.01 µM, first compound 0.0316 µM",97.3%
same,"viability, T/C","second compound 0.01 µM, first compound 0.1 µM",89.8%
same,"viability, T/C","second compound 0.01 µM, first compound 0.316 µM",94.5%
same,"viability, T/C","second compound 0.01 µM, first compound 1 µM",82.8%
same,"viability, T/C","second compound 0.01 µM, first compound 3.16 µM",77.6%
same,"viability, T/C","second compound 0.01 µM, first compound 10 µM",47.1%
same,"viability, T/C","second compound 0.0316 µM, first compound 0.0316 µM",85.1%
same,"viability, T/C","second compound 0.0316 µM, first compound 0.1 µM",82.4%
same,"viability, T/C","second compound 0.0316 µM, first compound 0.316 µM",78.2%
same,"viability, T/C","second compound 0.0316 µM, first compound 1 µM",80.2%
same,"viability, T/C","second compound 0.0316 µM, first compound 3.16 µM",55.1%
same,"viability, T/C","second compound 0.0316 µM, first compound 10 µM",46.3%
same,"viability, T/C",[1],66.2%
same,"viability, T/C",[2],77.8%
same,"viability, T/C",[3],75.4%
same,"viability, T/C",[4],59.6%
same,"viability, T/C",[5],49.8%
same,"viability, T/C",[6],27.4%
same,"viability, T/C",[7],62.2%
same,"viability, T/C",[8],56.4%
same,"viability, T/C",[9],59.7%
same,"viability, T/C",[10],57.8%
same,"viability, T/C",[11],52.9%
same,"viability, T/C",[12],29%
same,"viability, T/C",[13],54.7%
same,"viability, T/C",[14],62.2%
same,"viability, T/C",[15],61.4%
same,"viability, T/C",[16],54.9%
same,"viability, T/C",[17],44.9%
same,"viability, T/C",[18],22.2%
O=C(c1ccc(F)c(F)c1Nc1ccc(I)cc1F)N1CC(O)([C@@H]2CCCCN2)C1 + CCN1C(C(=O)NC23CCC(C(=O)O)(CC2)CC3)C(c2cccc(Cl)c2F)C2(C(=O)Nc3cc(Cl)ccc32)C12CCCCC2,IC50,second compound 0.03 µM,0.552 µM
same,IC50,second compound 0.0949 µM,0.622 µM
same,IC50,second compound 0.3 µM,0.57 µM
same,IC50,second compound 0.949 µM,0.638 µM
same,IC50,second compound 3 µM,0.641 µM
same,"viability, T/C","second compound 0.03 µM, first compound 0.00316 µM",100%
same,"viability, T/C","second compound 0.03 µM, first compound 0.01 µM",108%
same,"viability, T/C","second compound 0.03 µM, first compound 0.0316 µM",97.2%
same,"viability, T/C","second compound 0.03 µM, first compound 0.1 µM",96.2%
same,"viability, T/C","second compound 0.03 µM, first compound 0.316 µM",65.6%
same,"viability, T/C","second compound 0.03 µM, first compound 1 µM",33.2%
same,"viability, T/C","second compound 0.0949 µM, first compound 0.00316 µM",105%
same,"viability, T/C","second compound 0.0949 µM, first compound 0.01 µM",109%
same,"viability, T/C","second compound 0.0949 µM, first compound 0.0316 µM",107%
same,"viability, T/C","second compound 0.0949 µM, first compound 0.1 µM",97.8%
same,"viability, T/C","second compound 0.0949 µM, first compound 0.316 µM",68.9%
same,"viability, T/C","second compound 0.0949 µM, first compound 1 µM",36.8%
same,"viability, T/C","second compound 0.3 µM, first compound 0.00316 µM",107%
same,"viability, T/C","second compound 0.3 µM, first compound 0.01 µM",106%
same,"viability, T/C","second compound 0.3 µM, first compound 0.0316 µM",112%
same,"viability, T/C","second compound 0.3 µM, first compound 0.1 µM",82.9%
same,"viability, T/C","second compound 0.3 µM, first compound 0.316 µM",68.8%
same,"viability, T/C","second compound 0.3 µM, first compound 1 µM",34.3%
same,"viability, T/C","second compound 0.949 µM, first compound 0.00316 µM",102%
same,"viability, T/C","second compound 0.949 µM, first compound 0.01 µM",110%
same,"viability, T/C","second compound 0.949 µM, first compound 0.0316 µM",106%
same,"viability, T/C","second compound 0.949 µM, first compound 0.1 µM",86.2%
same,"viability, T/C","second compound 0.949 µM, first compound 0.316 µM",63.5%
same,"viability, T/C","second compound 0.949 µM, first compound 1 µM",41.8%
same,"viability, T/C","second compound 3 µM, first compound 0.00316 µM",99.5%
same,"viability, T/C","second compound 3 µM, first compound 0.01 µM",99.7%
same,"viability, T/C","second compound 3 µM, first compound 0.0316 µM",100%
same,"viability, T/C","second compound 3 µM, first compound 0.1 µM",87.2%
same,"viability, T/C","second compound 3 µM, first compound 0.316 µM",69.2%
same,"viability, T/C","second compound 3 µM, first compound 1 µM",38.2%
C=C(F)C(=O)N1CCN(c2nc(OCC3CCCN3C)nc3c2CCN(c2cccc4cccc(Cl)c24)C3)CC1CC#N (stereo not given) + Cc1c(S(C)(=O)=O)c(-c2cc(F)cc(N3CCN(c4ccc(NS(=O)(=O)c5ccc(NC(CCN6CCC(C(=O)OCCCP(=O)(O)O)CC6)CSc6ccccc6)c(S(=O)(=O)C(F)(F)F)c5)cc4)CC3)c2)c(-c2ccc(Cl)cc2)n1C(C)C,IC50,second compound 0.1 µM,1.86 µM
same,IC50,second compound 0.316 µM,1.39 µM
same,IC50,second compound 1 µM,1.36 µM
same,IC50,second compound 3.16 µM,0.772 µM
same,IC50,second compound 10 µM,1.39 µM
same,"viability, T/C",[1],87.2%
same,"viability, T/C",[2],97.2%
same,"viability, T/C",[3],89.6%
same,"viability, T/C",[4],76.5%
same,"viability, T/C",[5],27.4%
same,"viability, T/C",[6],0.18%
same,"viability, T/C",[7],83%
same,"viability, T/C",[8],91.2%
same,"viability, T/C",[9],80.2%
same,"viability, T/C",[10],61%
same,"viability, T/C",[11],22.8%
same,"viability, T/C",[12],0.13%
same,"viability, T/C",[13],83.5%
same,"viability, T/C",[14],66.3%
same,"viability, T/C",[15],76.3%
same,"viability, T/C",[16],57.7%
same,"viability, T/C",[17],27.2%
same,"viability, T/C",[18],0.14%
same,"viability, T/C",[19],88.3%
same,"viability, T/C",[20],75%
same,"viability, T/C","second compound 3.16 µM, first compound 0.316 µM",61.5%
same,"viability, T/C","second compound 3.16 µM, first compound 1 µM",51.7%
same,"viability, T/C","second compound 3.16 µM, first compound 3.16 µM",20.5%
same,"viability, T/C","second compound 3.16 µM, first compound 10 µM",0.13%
same,"viability, T/C",[21],79.2%
same,"viability, T/C",[22],77.5%
same,"viability, T/C","second compound 10 µM, first compound 0.316 µM",77.8%
same,"viability, T/C","second compound 10 µM, first compound 1 µM",62.4%
same,"viability, T/C","second compound 10 µM, first compound 3.16 µM",18.5%
same,"viability, T/C","second compound 10 µM, first compound 10 µM",0.2%
Cn1ncnc1[C@H]1c2n[nH]c(=O)c3cc(F)cc(c23)N[C@@H]1c1ccc(F)cc1 + Cc1c(S(C)(=O)=O)c(-c2cc(F)cc(N3CCN(c4ccc(NS(=O)(=O)c5ccc(NC(CCN6CCC(C(=O)OCCCP(=O)(O)O)CC6)CSc6ccccc6)c(S(=O)(=O)C(F)(F)F)c5)cc4)CC3)c2)c(-c2ccc(Cl)cc2)n1C(C)C,IC50,second compound 0.1 µM,> 0.1 µM
same,IC50,second compound 0.316 µM,> 0.1 µM
same,IC50,second compound 1 µM,> 0.1 µM
same,IC50,second compound 3.16 µM,> 0.1 µM
same,IC50,second compound 10 µM,0.0993 µM
same,"viability, T/C","second compound 0.1 µM, first compound 0.000316 µM",90.6%
same,"viability, T/C","second compound 0.1 µM, first compound 0.001 µM",89.9%
same,"viability, T/C","second compound 0.1 µM, first compound 0.00316 µM",82.1%
same,"viability, T/C","second compound 0.1 µM, first compound 0.01 µM",73.9%
same,"viability, T/C",[1],76.9%
same,"viability, T/C",[2],65.2%
same,"viability, T/C","second compound 0.316 µM, first compound 0.000316 µM",87.7%
same,"viability, T/C","second compound 0.316 µM, first compound 0.001 µM",79%
same,"viability, T/C","second compound 0.316 µM, first compound 0.00316 µM",71.6%
same,"viability, T/C","second compound 0.316 µM, first compound 0.01 µM",69.2%
same,"viability, T/C",[7],69.7%
same,"viability, T/C",[8],58.5%
same,"viability, T/C","second compound 1 µM, first compound 0.000316 µM",79%
same,"viability, T/C","second compound 1 µM, first compound 0.001 µM",85.1%
same,"viability, T/C","second compound 1 µM, first compound 0.00316 µM",78.4%
same,"viability, T/C","second compound 1 µM, first compound 0.01 µM",63.9%
same,"viability, T/C",[13],64%
same,"viability, T/C",[14],61.6%
same,"viability, T/C","second compound 3.16 µM, first compound 0.000316 µM",83.4%
same,"viability, T/C","second compound 3.16 µM, first compound 0.001 µM",68%
same,"viability, T/C","second compound 3.16 µM, first compound 0.00316 µM",70.3%
same,"viability, T/C","second compound 3.16 µM, first compound 0.01 µM",61%
same,"viability, T/C",[19],57.5%
same,"viability, T/C",[20],55%
same,"viability, T/C","second compound 10 µM, first compound 0.000316 µM",82%
same,"viability, T/C","second compound 10 µM, first compound 0.001 µM",72%
same,"viability, T/C","second compound 10 µM, first compound 0.00316 µM",77.7%
same,"viability, T/C","second compound 10 µM, first compound 0.01 µM",68.7%
same,"viability, T/C",[21],55.2%
same,"viability, T/C",[22],50%
